Test results reported in patent US6011010A, “Cytotoxic and antiviral compound” (Pharma Mar, s.a., priority 1997, dated 2000).
In brackets after ≈: the same amount, converted by molar mass.

Legend:
HSV II = conditions: Mv 1 Lu cells
HSV-1 = conditions: CV-1 cells
Saccharomyces cerevisiae = conditions: 50 μg/disk
[1] = In vitro cytotoxicity, human colon carcinoma HT-29 cell culture; format: cell-based; conditions: read-out: Cytotoxicity μg/mL (IC50)
Procedure: (§1) The antitumor activities of this compound have been determinated "in vitro" in cell cultures of human lung carcinoma A-549 and human colon carcinoma HT-29. The procedure was carried out using the methodology described by Raymond J. Bergeron et al., Biochem. Biophys. Res. Comm. 1984, 121 (3), 848-854 and by Alan C. Schroeder et al., J. Med. Chem. 1981, […] 1078-1083.

[2] = In vitro cytotoxicity, human lung carcinoma A-549 cell culture; format: cell-based; conditions: read-out: Cytotoxicity μg/mL (IC50)
Procedure: as §1

## C/C=C1\NC(=O)[C@H](Cc2ccccc2)NC(=O)[C@@H](C(C)C)NC(=O)[C@@H]([C@@H](C)CC)NC(=O)[C@H](NC(=O)[C@H](NC(=O)[C@H](CCCN)NC(=O)[C@H]2CCCN2C(=O)[C@H](NC(=O)[C@@H](NC(=O)[C@@H](NC(=O)[C@H](NC(=O)CCCC(C)C)C(C)C)[C@@H](C)O)C(C)C)C(C)C)[C@@H](C)CC)[C@@H](C)OC(=O)[C@H](C(C)C)NC1=O [Kahalalide F]
HSV II; at 0.5 μg/mL
  Antiviral % reduction: 95%
HSV II; concentration giving the printed % reduction
  Antiviral μg/mL (M.I.C.): 0.5 µg/mL
HSV-1
  Antiviral μg/mL (M.I.C.): > 8 µg/mL
Saccharomyces cerevisiae
  Antifungal 6 mm disk (zone): neg
[1]
  IC50: 0.25 to 0.5 µg/mL (≈ 0.169 to 0.338 µM)
VSV
  Antiviral μg/mL (M.I.C.): > 8
[2]
  IC50: 2.5 µg/mL (≈ 1.69 µM)
